# Experimental data published in US20100267561A1, “HERBICIDAL PYRIDAZINONE DERIVATIVES” (priority 2007, published 2010).
# Tests used:
# Assay in all cases: Test B pre-/postemergence plant response
# Assay type in all cases: in vivo
# [1] = test system: wheat (Triticum aestivum); conditions: Preemergence
# Outline: (§1)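 Seeds were sown and sprayed preemergence, while plants at 2 to 18 cm (1- to 4-leaf stage) got postemergence sprays. Compounds were formulated in a non-phytotoxic solvent mixture with surfactant. After 13 to 15 days in a greenhouse, injury was rated visually against untreated controls, 0 (no effect) to 100 (complete control).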
# [2] = test system: surinam grass (Brachiaria decumbens); conditions: Preemergence
# Outline: as §1
# [3] = test system: kochia (Kochia scoparia); conditions: Preemergence
# Outline: as §1
# [4] = test system: morningglory (Ipomoea coccinea); conditions: Preemergence
# Outline: as §1
# [5] = test system: bermudagrass (Cynodon dactylon); conditions: for Plant response rating, Bermudagrass: Preemergence
# Outline: as §1
# [6] = test system: cocklebur (Xanthium strumarium); conditions: Preemergence
# Outline: as §1
# [7] = test system: lambsquarters (Chenopodium album); conditions: Preemergence
# Outline: as §1
# [8] = test system: common ragweed (Ambrosia elation); conditions: Preemergence
# Outline: as §1
# [9] = test system: Italian ryegrass (Lolium multiflorum); conditions: Preemergence
# Outline: as §1
# [10] = test system: common (oilseed) sunflower (Helianthus annuus); conditions: Preemergence
# Outline: as §1
# [11] = test system: soybean (Glycine max); conditions: Preemergence
# Outline: as §1
# [12] = test system: velvetleaf (Abutilon theophrasti); conditions: Preemergence
# Outline: as §1
# [13] = test system: johnsongrass (Sorghum halepense); conditions: Preemergence, scale 0 to 100
# Outline: as §1
# [14] = test system: goosegrass (Eleusine indica); conditions: Preemergence
# Outline: as §1
# [15] = 31 g ai/ha, 0 to 100 scale, 0 no effect, 100 complete control
structure (smiles),measurement,setting,value
Cc1cc(-c2ccc(C(F)(F)F)cc2)nn1-c1c(OC(=O)C(C)(C)C)cnn(C)c1=O [Compound 2],"Plant response rating, Wheat",[1]; [15],30
same,"Plant response rating, Wheat","[1]; 62 g ai/ha, scale 0 to 100",50
same,"Plant response rating, Wheat","[1]; 125 g ai/ha, scale 0 to 100",60
same,"Plant response rating, Wheat","[1]; 250 g ai/ha, scale 0 to 100",75
same,"Plant response rating, Surinam Grass",[2]; [15],85
same,"Plant response rating, Surinam Grass","[2]; 62 g ai/ha, scale 0 to 100",85
same,"Plant response rating, Surinam Grass","[2]; 250 g ai/ha, scale 0 to 100",100
same,"Plant response rating, Kochia",[3]; [15],0
same,"Plant response rating, Kochia","[3]; 62 g ai/ha, scale 0 to 100",0
same,"Plant response rating, Kochia","[3]; 125 g ai/ha, scale 0 to 100",0
same,"Plant response rating, Kochia","[3]; 250 g ai/ha, scale 0 to 100",50
same,"Plant response rating, Morningglory",[4]; [15],0
same,"Plant response rating, Morningglory","[4]; 62 g ai/ha, scale 0 to 100",0
same,"Plant response rating, Morningglory","[4]; 125 g ai/ha, scale 0 to 100",0
same,"Plant response rating, Morningglory","[4]; 250 g ai/ha, scale 0 to 100",0
same,Bermudagrass plant response rating,"[5]; 250 g ai/ha, preemergence, 0-100 scale",100
same,"Plant response rating, Bermudagrass",[5]; [15],100
same,"Plant response rating, Bermudagrass","[5]; 62 g ai/ha, scale 0 to 100",100
same,"Plant response rating, Bermudagrass","[5]; 125 g ai/ha, scale 0 to 100",100
same,"Plant response rating, Cocklebur",[6]; [15],0
same,"Plant response rating, Cocklebur","[6]; 62 g ai/ha, scale 0 to 100",0
same,"Plant response rating, Cocklebur","[6]; 125 g ai/ha, scale 0 to 100",0
same,"Plant response rating, Cocklebur","[6]; 250 g ai/ha, scale 0 to 100",0
same,"Plant response rating, Lambsquarters",[7]; [15],0
same,"Plant response rating, Lambsquarters","[7]; 62 g ai/ha, scale 0 to 100",0
same,"Plant response rating, Lambsquarters","[7]; 125 g ai/ha, scale 0 to 100",0
same,"Plant response rating, Lambsquarters","[7]; 250 g ai/ha, scale 0 to 100",30
same,"Plant response rating, Ragweed",[8]; [15],0
same,"Plant response rating, Ragweed","[8]; 62 g ai/ha, scale 0 to 100",0
same,"Plant response rating, Ragweed","[8]; 125 g ai/ha, scale 0 to 100",0
same,"Plant response rating, Ragweed","[8]; 250 g ai/ha, scale 0 to 100",0
same,"Plant response rating, Ryegrass, Italian",[9]; [15],75
same,"Plant response rating, Ryegrass, Italian","[9]; 62 g ai/ha, scale 0 to 100",100
same,"Plant response rating, Ryegrass, Italian","[9]; 125 g ai/ha, scale 0 to 100",100
same,"Plant response rating, Ryegrass, Italian","[9]; 250 g ai/ha, scale 0 to 100",100
same,"Plant response rating, Sunflower",[10]; [15],0
same,"Plant response rating, Sunflower","[10]; 62 g ai/ha, scale 0 to 100",0
same,"Plant response rating, Sunflower","[10]; 125 g ai/ha, scale 0 to 100",0
same,"Plant response rating, Sunflower","[10]; 250 g ai/ha, scale 0 to 100",0
same,"Plant response rating, Soybean",[11]; [15],0
same,"Plant response rating, Soybean","[11]; 62 g ai/ha, scale 0 to 100",0
same,"Plant response rating, Soybean","[11]; 125 g ai/ha, scale 0 to 100",0
same,"Plant response rating, Soybean","[11]; 250 g ai/ha, scale 0 to 100",0
same,"Plant response rating, Velvetleaf",[12]; [15],0
same,"Plant response rating, Velvetleaf","[12]; 62 g ai/ha, scale 0 to 100",0
same,"Plant response rating, Velvetleaf","[12]; 125 g ai/ha, scale 0 to 100",0
same,"Plant response rating, Velvetleaf","[12]; 250 g ai/ha, scale 0 to 100",10
same,"Plant response rating, Johnsongrass",[13]; 62 g ai/ha,80
same,"Plant response rating, Johnsongrass",[13]; 250 g ai/ha,80
same,"Plant response rating, Goosegrass",[14]; [15],50
same,"Plant response rating, Goosegrass","[14]; 62 g ai/ha, scale 0 to 100",60
same,"Plant response rating, Goosegrass","[14]; 125 g ai/ha, scale 0 to 100",95
same,"Plant response rating, Goosegrass","[14]; 250 g ai/ha, scale 0 to 100",95
